Laboratory results: ChEMBL document CHEMBL1201862, “PubChem BioAssay data set” (2004)
Several values for one entry are separate records, joined by “and”; a condition that tells them apart may be missing. Equal entries are not always repeated.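 Exposure lasted 48 hours, with cells grown in 96-well plates and compounds tested at five concentrations. Here, GI50 denotes the concentration required for 50% inhibition of growth.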 Activity calls are given as the source filed them. Cut-off read from the data, not from the text of the source: active = GI50 up to about 1.1 µM and inactive = higher.

Legend:
Assay in all cases: NCI tumour cell line growth inhibition, 48 h
[1] = test system: BT-549
[2] = test system: EKVX
[3] = test system: HCT-116
[4] = test system: K562
[5] = test system: MDA-MB-231
[6] = test system: MDA-N
[7] = test system: MOLT-4
[8] = test system: NCI-H23
[9] = test system: NCI/ADR-RES
[10] = test system: PC-3
[11] = test system: SF-539
[12] = test system: SK-MEL-28
[13] = test system: SNB-75
[14] = test system: SR
[15] = test system: U-251
[16] = test system: CAKI-1
[17] = test system: HOP-92
[18] = test system: SK-OV-3
[19] = test system: T47D

Row | Structure (SMILES) | GI50 [1] | GI50 [2] | GI50 [3] | GI50 [4] | GI50 [5] | GI50 [6] | GI50 [7] | GI50 [8] | GI50 [9] | GI50 [10] | GI50 [11] | GI50 [12] | GI50 [13] | GI50 [14] | GI50 [15] | GI50 [16] | GI50 [17] | GI50 [18] | GI50 [19]
1 | CC(=O)CCC(=O)C(=[N+]=[N-])S(=O)(=O)c1ccccc1 | > 100 µM (inactive) | > 100 µM (inactive) | > 100 µM (inactive) | > 100 µM (inactive) | > 100 µM (inactive) | > 100 µM (inactive) | > 100 µM (inactive) | > 100 µM (inactive) | > 100 µM (inactive) | > 100 µM (inactive) | > 100 µM (inactive) | > 100 µM (inactive) | > 100 µM (inactive) | > 100 µM (inactive) | > 100 µM (inactive) | – | – | – | –
2 | C=CCn1c(-c2cc(C(C)(C)C)c(O)c(C(C)(C)C)c2)cs/c1=N\C(P(=O)(O)O)P(=O)(O)O | > 100 µM (inactive) | > 100 µM (inactive) | 14.7 µM (inactive) | > 100 µM (inactive) | 35.2 µM (inactive) | – | > 100 µM (inactive) | > 100 µM (inactive) | > 100 µM (inactive) | > 100 µM (inactive) | > 100 µM (inactive) | > 100 µM (inactive) | > 100 µM (inactive) | > 100 µM (inactive) | > 100 µM (inactive) | > 100 µM (inactive) | > 100 µM (inactive) | > 100 µM (inactive) | > 100 µM (inactive)
3 | O=c1c(/C=C/c2c(O)ccc3ccccc23)nnc2sc(-c3cccc([N+](=O)[O-])c3)nn12 | 17.2 µM (inactive) | 18.7 µM (inactive) | 4.98 µM (inactive) | 25.6 µM (inactive) | 7.33 µM (inactive) | 28.7 µM (inactive) | 3.94 µM (inactive) | 19.1 µM (inactive) | 12.3 µM (inactive) | 10.1 µM (inactive) | – | > 100 µM (inactive) | – | 4.38 µM (inactive) | 7.6 µM (inactive) | 19.1 µM (inactive) | 24.2 µM (inactive) | 30 µM (inactive) | –
4 | CCNC(=O)CCC(C)[C@H]1CCC2C3C(C[C@H](OC(C)=O)[C@@]21C)[C@@]1(C)CCC2(C[C@H]1C[C@H]3OC(C)=O)OOC1(CCC(C)CC1)OO2 (stereo partly specified) | 2.03 µM (inactive) and 1.57 µM (inactive) | 1.39 µM (inactive) and 1.3 µM (inactive) | 1.94 µM (inactive) and 1.79 µM (inactive) | 3.8 µM (inactive) | 2.1 µM (inactive) | 1.88 µM (inactive) and 2.65 µM (inactive) | – | 2.13 µM (inactive) and 2.2 µM (inactive) | 3.31 µM (inactive) and 1.73 µM (inactive) | – | 1.97 µM (inactive) and 2.75 µM (inactive) | 2.9 µM (inactive) and 3.47 µM (inactive) | 1.59 µM (inactive) and 1.95 µM (inactive) | 1.17 µM (inactive) and 1.03 µM (active) | 2.09 µM (inactive) and 1.6 µM (inactive) | 1.5 µM (inactive) and 820 nM (active) | 1.68 µM (inactive) and 1.44 µM (inactive) | 4.02 µM (inactive) and 2.54 µM (inactive) | 1.43 µM (inactive) and 1.68 µM (inactive)
5 | Cc1cc(N(CCC#N)S(C)(=O)=O)ccc1C=O | – | – | > 100 µM (inactive) | > 100 µM (inactive) | – | – | > 100 µM (inactive) | > 100 µM (inactive) | – | – | > 100 µM (inactive) | > 100 µM (inactive) | > 100 µM (inactive) | > 100 µM (inactive) | > 100 µM (inactive) | > 100 µM (inactive) | – | > 100 µM (inactive) | –
6 | Cn1c2ccccc2c2c(=O)[nH]c(=O)[nH]c21 | > 100 µM (inactive) | > 100 µM (inactive) | > 100 µM (inactive) | > 100 µM (inactive) | > 100 µM (inactive) | > 100 µM (inactive) | > 100 µM (inactive) | > 100 µM (inactive) | > 100 µM (inactive) | – | > 100 µM (inactive) | > 100 µM (inactive) | 82.4 µM (inactive) | > 100 µM (inactive) | > 100 µM (inactive) | > 100 µM (inactive) | > 100 µM (inactive) | > 100 µM (inactive) | > 100 µM (inactive)
7 | CCSC1=N/C(=C\c2ccco2)C(=O)N1 | – | > 100 µM (inactive) | > 100 µM (inactive) | > 100 µM (inactive) | > 100 µM (inactive) | > 100 µM (inactive) | > 100 µM (inactive) | > 100 µM (inactive) | > 100 µM (inactive) | > 100 µM (inactive) | – | > 100 µM (inactive) | > 100 µM (inactive) | > 100 µM (inactive) | > 100 µM (inactive) | – | 93.3 µM (inactive) | > 100 µM (inactive) | –
8 | CC(=O)OC1C2CCC3CC2C2(SCCS2)C31 (stereo unspecified) | – | > 100 µM (inactive) | > 100 µM (inactive) | > 100 µM (inactive) | 51.9 µM (inactive) | > 100 µM (inactive) | > 100 µM (inactive) | > 100 µM (inactive) | > 100 µM (inactive) | > 100 µM (inactive) | 65.9 µM (inactive) | > 100 µM (inactive) | – | > 100 µM (inactive) | > 100 µM (inactive) | – | > 100 µM (inactive) | > 100 µM (inactive) | > 100 µM (inactive)
9 | CC(=O)c1nc(C#N)c(N)o1 | – | > 100 µM (inactive) | > 100 µM (inactive) | > 100 µM (inactive) | > 100 µM (inactive) | > 100 µM (inactive) | > 100 µM (inactive) | > 100 µM (inactive) | > 100 µM (inactive) | > 100 µM (inactive) | > 100 µM (inactive) | > 100 µM (inactive) | > 100 µM (inactive) | – | > 100 µM (inactive) | > 100 µM (inactive) | > 100 µM (inactive) | > 100 µM (inactive) | > 100 µM (inactive)
10 | CCOC(=O)C(NC(=O)c1cccc(Cl)c1)(N1CCN(c2cc3c(cc2F)c(=O)c(C(=O)O)cn3C2CC2)CC1)C(F)(F)F (stereo unspecified) | 18.9 µM (inactive) | 18.6 µM (inactive) | 12.7 µM (inactive) | 4.78 µM (inactive) | 15.6 µM (inactive) | 15.2 µM (inactive) | 3.71 µM (inactive) | 15.4 µM (inactive) | – | 13.7 µM (inactive) | 16.7 µM (inactive) | 16.5 µM (inactive) | 20.2 µM (inactive) | 6.61 µM (inactive) | 5.24 µM (inactive) | 17.3 µM (inactive) | 16.3 µM (inactive) | 23.4 µM (inactive) | 19.1 µM (inactive)
11 | COc1c(-c2ccc3c(c2)OCO3)oc2cc(O)cc(O)c2c1=O | – | 43.7 µM (inactive) | 62.1 µM (inactive) | 45.1 µM (inactive) | 97.7 µM (inactive) | 62.7 µM (inactive) | 21.2 µM (inactive) | 63.4 µM (inactive) | 46 µM (inactive) | 57.3 µM (inactive) | 39.6 µM (inactive) | > 100 µM (inactive) | 13.4 µM (inactive) | 22.6 µM (inactive) | 75.2 µM (inactive) | 27.7 µM (inactive) | 34.3 µM (inactive) | 19.6 µM (inactive) | 12.9 µM (inactive)
12 | C=C1C(=O)CC2C(=O)C(C)(O)CC/C=C(\C)C(=O)CC12 (stereo unspecified) | 15.8 µM (inactive) | 21.5 µM (inactive) | 10.3 µM (inactive) | 6.37 µM (inactive) | 26.7 µM (inactive) | 17.3 µM (inactive) | 4.14 µM (inactive) | 16.9 µM (inactive) | 38.5 µM (inactive) | 24.7 µM (inactive) | 18.2 µM (inactive) | 24.3 µM (inactive) | > 41.9 µM (inactive) | 20.2 µM (inactive) | > 49.5 µM (inactive) | 3.17 µM (inactive) | 23.6 µM (inactive) | > 100 µM (inactive) | –
13 | O=C1CC(c2cccc([N+](=O)[O-])c2)C2(C(=O)NC(=O)NC2=O)C(c2cccc([N+](=O)[O-])c2)C1 (stereo unspecified) | > 100 µM (inactive) | – | 20.1 µM (inactive) | 67.6 µM (inactive) | > 100 µM (inactive) | > 100 µM (inactive) | > 100 µM (inactive) | > 100 µM (inactive) | > 100 µM (inactive) | 69.7 µM (inactive) | > 100 µM (inactive) | > 100 µM (inactive) | > 100 µM (inactive) | 55.6 µM (inactive) | > 100 µM (inactive) | – | 36.5 µM (inactive) | > 100 µM (inactive) | –
14 | COc1cccc(C2SCC(=O)N2c2ccc(-c3ccc(-n4c(-c5ccccc5)nc5ccccc5c4=O)cc3)cc2)c1OC (stereo unspecified) | 42 µM (inactive) | > 100 µM (inactive) | 59.8 µM (inactive) | 73.6 µM (inactive) | > 100 µM (inactive) | – | 60.8 µM (inactive) | > 100 µM (inactive) | > 100 µM (inactive) | > 100 µM (inactive) | 32.6 µM (inactive) | > 100 µM (inactive) | 22 µM (inactive) | 60.1 µM (inactive) | 34.6 µM (inactive) | 67.8 µM (inactive) | 55.8 µM (inactive) | > 10 µM (inactive) | 24.5 µM (inactive)
15 | N#CCCC1(CCC#N)CCc2ccccc2C1=O | – | > 100 µM (inactive) | > 100 µM (inactive) | > 100 µM (inactive) | > 100 µM (inactive) | > 100 µM (inactive) | > 100 µM (inactive) | > 100 µM (inactive) | > 100 µM (inactive) | > 100 µM (inactive) | > 100 µM (inactive) | > 100 µM (inactive) | > 100 µM (inactive) | > 100 µM (inactive) | > 100 µM (inactive) | > 100 µM (inactive) | – | > 100 µM (inactive) | > 100 µM (inactive)
16 | COc1ccc(CC(C)N)cc1 (stereo unspecified) [PARA-METHOXYAMPHETAMINE] | – | > 100 µM (inactive) | > 100 µM (inactive) | > 100 µM (inactive) | – | – | > 100 µM (inactive) | > 100 µM (inactive) | – | – | > 100 µM (inactive) | > 100 µM (inactive) | > 100 µM (inactive) | > 100 µM (inactive) | > 100 µM (inactive) | > 100 µM (inactive) | > 100 µM (inactive) | > 100 µM (inactive) | –
